Values quoted from earlier work, collected in PMC9299415 (Molecular Neurobiology, 2022).

Columns and labels:
[1] = system: α7 nAChR
[2] = system: SARS-CoV-2; settings: rhesus macaque model, ref [18]

SMILES: Oc1ccc2[nH]ccc2c1 [5-HI, 5-hydroxyindole]
- potentiation efficacy compared with PNU-120596 [1]: lower efficacy than PNU-120596
- recovery of receptors from desensitization [1]: does not produce significant recovery of receptors from desensitization

SMILES: CCN1C[C@]2(COC(=O)c3ccccc3N3C(=O)C[C@H](C)C3=O)CC[C@H](OC)[C@@]34[C@@H]5C[C@H]6[C@H](OC)[C@@H]5[C@](O)(C[C@@H]6OC)[C@@](O)([C@@H](OC)[C@H]23)[C@@H]14 [MLA, methyllycaconitine]
- agonist/antagonist type at α7 [1]: reversible competitive α7 antagonist

SMILES: c1cnc2cc3c(cc2n1)[C@@H]1CNC[C@H]3C1 [varenicline]
- infectivity and disease progression [2]: reduces infectivity and disease progression
- agonist/antagonist type at α7 [1]: full agonist

SMILES: COc1cc(OC)c(NC(=O)Nc2cc(C)on2)cc1Cl [PNU-120596, N-(5-Chloro-2,4-dimethoxyphenyl)-N’-(5-methyl-3-isoxazolyl)-urea]
- channel activation by PNU-120596 by itself [1]: cannot induce channel activation
